Values quoted from earlier work in patent publication US20070293674A1, “Novel Saperconazole Crystalline Forms and Related Processes, Pharmaceutical Compositions and Methods” (TRANSFORM PHARMACEUTICALS, INC., priority 2004, published 2007).

Assays:
[1] = piperazine of itraconazole
[2] = free base

In the case of CCC(C)n1ncn(-c2ccc(N3CCN(c4ccc(OC[C@H]5CO[C@](Cn6cncn6)(c6ccc(Cl)cc6Cl)O5)cc4)CC3)cc2)c1=O (mixture of isomers) [itraconazole, 4-[4-[4-[4-[[2-(2,4-dichlorophenyl)-2-(1H-1,2,4-triazol-1-ylmethyl)-1,3-dioxolan-4-yl]methoxy]phenyl]-1-piperazinyl]phenyl]-2,4-dihydro-2-(1-methylpropyl)-3H-1,2,4-triazol-3-one], the “pKa value for the piperazine” value [1] is given as 3.7 and the solubility in water [2] is given as “only very sparingly soluble in water”.
